Assay results taken from BindingDB's records for doi:10.1021/jm010399h (University of Tennessee Health Science Center, 2002).

Biological target: Integrase (Human immunodeficiency virus 1, UniProt Q7ZJM1)
Test: Inhibitory activity against HIV-1 Integrase (HIV-1-IN)

Integrase, sequence (Q7ZJM1 whole entry): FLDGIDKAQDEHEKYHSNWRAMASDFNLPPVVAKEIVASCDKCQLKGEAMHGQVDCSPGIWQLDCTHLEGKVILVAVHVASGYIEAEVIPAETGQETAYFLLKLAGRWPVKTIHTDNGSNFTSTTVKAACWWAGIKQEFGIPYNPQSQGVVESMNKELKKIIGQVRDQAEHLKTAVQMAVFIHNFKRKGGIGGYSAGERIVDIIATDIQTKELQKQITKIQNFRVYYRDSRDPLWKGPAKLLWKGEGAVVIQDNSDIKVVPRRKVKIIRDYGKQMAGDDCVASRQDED

Structure (SMILES) | IC50
O=C(C=Cc1ccccc1)CC(=O)C=Cc1ccccc1 [5-Hydroxy-1,7-diphenylhepta-1,4,6-trien-3-one] | 100 µM
COc1ccc(C=CC(=O)CC(=O)C=Cc2ccc(OC)c(OC)c2)cc1OC [(1E,4Z,6E)-1,7-bis(3,4-dimethoxyphenyl)-5-hydroxyhepta-1,4,6-trien-3-one] | 100 µM
